# What was measured:
# [1] = test system: ECs isolated from >50 y.o. human adipose tissues; assay: EC senescence (p16INK4A staining) in aged ECs cultured on FN-coated microcontact-printed islands; type: cell-based; conditions: aged ECs on the large island (2500 μm2), ML141 500 nM, compared to those without ML141 treatment
# Description: (§1) In an in vitro cell culture study human adipose endothelial cells were treated with ML141 (500 nM with DMSO). In an in vivo mouse study hydrogel mixed with young or aged human endothelial cells or in combination with ML141 (500 nM with DMSO) was implanted on the back of the immunocompromised mouse. One week later, the gel was removed and analyzed blood vessel formation using immunohistochemical analysis.
# EC proliferation was analyzed by a BrdU incorporation assay or a Click-iT® Plus EdU Proliferation Assay. Mouse lung and human adipose ECs were plated in EBM2 with 2% serum, pulsed with 5 μM BrdU for 16 h, immunostained and imaged using a confocal Leica SP5 microscope. Cellular senescence was characterized using a SA-β galactosidase assay kit (cell signaling) or anti-P16^INK4A staining. The specificity of P16^INK4A staining was confirmed by 2nd Ab alone staining (Supplementary FIG. 1D). The microscopic images were analyzed on at least five images using imageJ software (NIH) and the same contrast and brightness were used to compare the images.
# (§2) Microcontact printing system—Stamps were created using soft lithography as described previously. Polydimethylsiloxane (PDMS) stamps were made by casting the polymer against master molds made by standard photolithography using the negative photoresist SU-8 (MicroChem). […]
# [2] = test system: YAP1; assay: Immunoblot of YAP1S127 phosphorylation in aged human adipose ECs treated with ML141; type: cell-based; conditions: ML141 500 nM, compared to those without ML141 treatment
# Description: (§3) FIGS. 3A-3F show CDC42-YAP1 mediates cell size-dependent changes in EC senescence in aged ECs. (FIG. 3A) Representative immunoblots showing YAP1, YAP1S127 phosphorylation, and β-actin protein levels in ECs isolated from >50 y.o. human adipose tissues treated with retrovirus overexpressing full-length YAP1 or YAP1S127A (left). Graph showing the quantification of immunoblots (right, n=3, *, p<0.05). (FIG. 3B) IF micrographs showing P16^INK4A expression and DAPI in ECs isolated from >50 y.o. human adipose tissues treated with retrovirus overexpressing full-length YAP1 or YAP1S127A, cultured on FN-coated island of different sizes. Scale bar, 10 (FIG. 3C) Graph showing quantification of P16^INK4A integrated density (n=7, mean±s.e.m., *, p<0.05). […] Graph showing quantification of GTP-CDC42 integrated density (n=7, mean±s.e.m., *, p<0.05). […] Graph showing the quantification of immunoblots (bottom, n=3, *, p<0.05). […] Scale bar, Graphs showing quantification of P16^INK4A integrated density (bottom left) and nuclear YAP1 (bottom right) (n=7, mean±s.e.m., *, p<0.05).
# (§4) In an in vitro cell culture study human adipose endothelial cells were treated with ML141 (500 nM with DMSO). […] One week later, the gel was removed and analyzed blood vessel formation using immunohistochemical analysis.
# [3] = test system: aged human adipose ECs; assay: Mouse subcutaneous fibrin gel implantation (blood vessel formation and dextran leakage); type: in vivo, NSG mouse
# Description: as §1
# Mouse subcutaneous fibrin gel implantation—The in vivo animal study was carried out in strict accordance with the recommendations in the Guide for the Care and Use of Laboratory Animals of the National Institutes of Health. The protocol was reviewed and approved by the Animal Care and Use Committee of Medical College of Wisconsin. NOD scid gamma (NSG) mice (8 week old; Jackson Laboratory) and C57BL6 mice (Jackson Laboratory and NIA/NIH rodent colonies) were used for the study. Fibrin gel was fabricated as described. […] Vascular network formation of GFP-labeled human adipose ECs was evaluated by measuring the area and length of GFP-labeled blood vessels from five different areas of the gel. The vascular permeability was measured using low MW fluorescently labeled dextran (MW 4000, Sigma) leakage. […]
# [4] = molecular target: T1, CDC42 (Homo sapiens, UniProt P60953); assay: GTP-CDC42 levels by immunofluorescence in aged human adipose ECs treated with ML141; type: cell-based; conditions: ECs from >50 y.o. human adipose tissues, ML141 500 nM
# T1 construct: endogenous in cells; host or cells: primary endothelial cells isolated from >50 y.o. human adipose tissue
# T1 sequence (P60953 whole entry): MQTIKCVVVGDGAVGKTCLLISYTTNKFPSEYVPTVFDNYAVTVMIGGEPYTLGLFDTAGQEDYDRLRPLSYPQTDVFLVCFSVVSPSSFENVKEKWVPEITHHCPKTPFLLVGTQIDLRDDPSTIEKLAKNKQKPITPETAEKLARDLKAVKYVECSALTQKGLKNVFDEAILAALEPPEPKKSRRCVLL
# Description: as §3, §4
# [5] = test system: YAP1; assay: YAP1 nuclear localization in aged ECs cultured on FN-coated microcontact-printed islands; type: cell-based, human; conditions: aged ECs on the large island (2500 μm2), ML141 500 nM, compared to those without ML141 treatment
# Description: To directly analyze whether EC size controls YAP1 activity, we prepared microcontact-printed substrates consisting of square FN-coated islands (600-2500 μm2) surrounded by non-adhesive regions, in which we directly stamped FN (50 μg/ml) onto activated polydimethylsiloxane-coated cover slips and blocked unstamped areas with Pluronic F-127 [49, 50]. […] In contrast, when we cultured 24M old mouse lung ECs on the large islands, YAP1 was excluded from the nucleus, while YAP1 was in the nucleus on the medium size islands (FIGS. 6D and 6E).
# as §1
# as §2, with “(MicroChem). Substrates for stamping were fabricated by spin-coating a thin layer of PDMS (Sylgard-184, Dow Corning) onto glass coverslips.” for “(MicroChem).”
smiles,measurement,setting,value
COc1ccc(C2CC(c3ccccc3)=NN2c2ccc(S(N)(=O)=O)cc2)cc1 (stereo not drawn) [ML141],"intensity of senescence marker p16INK4A, lower",[1],45%
same,decrease in YAP1S127 phosphorylation,[2],72%
same,"aged EC-derived blood vessel length, times longer","[3]; fibrin gel with aged human adipose ECs, ML141 500 nM in gel, subcutaneous in NSG mouse, 7 days",2.5 times
same,leakage of fluorescently labeled dextran in the gel,"[3]; gel with aged ECs, ML141 500 nM, dextran by systemic injection",attenuated the leakage of dextran
same,CDC42 activity (GTP-CDC42 integrated density),[4],Inhibition of CDC42 activity
same,"levels of nuclear YAP1, times higher",[5],1.2 times

# From patent US12433871B2, “Effects of age-dependent changes in cell size on endothelial cell growth” (The Medical College of Wisconsin, Inc., priority 2019, dated 2025)
